# Data from BindingDB's records for doi:10.1016/s0960-894x(00)00033-0 (Albany Molecular Research, 2000).
# Where “and” joins values, the source holds several entries; their conditions need not be identical. Equal values may be shown once. Where a name gives a salt, the structure may show the parent alone.
# What was measured:
# [1] = Binding affinity against Opioid receptor delta 1 of calf cortex using […] as radioligand
# [2] = Binding affinity against Opioid receptor kappa 1 of calf cortex using [3H]-U-69,593 as radioligand
# [3] = as above; remark: listed apart in the source
structure (smiles),measurement,setting,value
COCCC1CC2CN3CCc4c([nH]c5ccccc45)C(C(=O)OC)(C2)C13 (stereo not drawn) [(-)-18-Methoxycoronaridine hydrochloride],Ki,[1],3.5 µM
same,Ki,[2],5.5 µM and 5.1 µM
same,Ki,[3],4.8 µM
